This is an account of results in ChEMBL document CHEMBL1149399, “Dual inhibitors of thymidylate synthase and dihydrofolate reductase as antitumor agents: design, synthesis, and biological evaluation of classical and nonclassical pyrrolo[2,3-d]pyrimidine antifolates(1)” (J Med Chem, 2006).

Data set [1] is described as follows: Inhibition of DHFR from Escherichia coli.
Data set [2] concerns CCRF-CEM. In words: Inhibition of growth in MTX-resistant CCRF-CEM cell line, R30dm cells. The format is functional, cell-based. Conditions: Homo sapiens; call rule not given here.
The test system of data set [3] is CCRF-CEM. In words: Inhibition of growth in CCRF-CEM cells. In kind it is functional, cell-based. Conditions: Homo sapiens.
Data set [4] addresses Thymidylate synthase (Escherichia coli, UniProt C3SWJ7). The data set is described as follows: Inhibition of TS from Escherichia coli.
In data set [5] the target is T1, Dihydrofolate reductase (Homo sapiens) (UniProt P00374).
T1 sequence (whole entry): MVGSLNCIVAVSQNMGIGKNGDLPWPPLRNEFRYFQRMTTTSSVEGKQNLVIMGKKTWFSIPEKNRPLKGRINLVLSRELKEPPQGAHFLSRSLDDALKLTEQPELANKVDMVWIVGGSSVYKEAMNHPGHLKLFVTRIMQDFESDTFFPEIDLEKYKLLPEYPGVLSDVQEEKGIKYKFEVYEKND
The data set is described as follows: Inhibition of recombinant human DHFR at >29 uM.

The target of data set [6] is T2, Thymidylate synthase (Homo sapiens, UniProt P04818).
Target sequence in this assay (P04818 whole entry): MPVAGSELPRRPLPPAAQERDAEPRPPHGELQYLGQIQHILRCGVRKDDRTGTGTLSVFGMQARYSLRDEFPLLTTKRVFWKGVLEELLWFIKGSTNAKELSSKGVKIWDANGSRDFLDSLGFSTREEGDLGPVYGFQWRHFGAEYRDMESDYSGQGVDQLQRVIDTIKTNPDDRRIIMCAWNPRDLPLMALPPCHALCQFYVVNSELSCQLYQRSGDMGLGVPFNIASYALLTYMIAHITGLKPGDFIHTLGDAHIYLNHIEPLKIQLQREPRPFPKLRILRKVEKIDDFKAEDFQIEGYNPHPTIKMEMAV
Data set [7] addresses T2, Thymidylate synthase. The data set is described as follows: Inhibition of recombinant human TS at >3.1*10-5 nM.
Target sequence in this assay (P04818 2-313 limits assumed): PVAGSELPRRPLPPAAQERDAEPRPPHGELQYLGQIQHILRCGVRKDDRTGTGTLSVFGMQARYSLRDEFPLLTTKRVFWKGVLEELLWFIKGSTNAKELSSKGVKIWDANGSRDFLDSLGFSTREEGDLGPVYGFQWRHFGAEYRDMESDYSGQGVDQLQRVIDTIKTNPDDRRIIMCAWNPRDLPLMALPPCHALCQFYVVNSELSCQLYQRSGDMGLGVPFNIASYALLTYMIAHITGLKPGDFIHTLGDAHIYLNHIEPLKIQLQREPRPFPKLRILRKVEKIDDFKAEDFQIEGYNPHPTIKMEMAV
Data set [8] deals with Thymidylate synthase (Escherichia coli) (UniProt C3SWJ7). In words: Inhibition of TS from Escherichia coli at >3.1*10-5 nM.
Chain of Thymidylate synthase (Escherichia coli) (C3SWJ7 1-264): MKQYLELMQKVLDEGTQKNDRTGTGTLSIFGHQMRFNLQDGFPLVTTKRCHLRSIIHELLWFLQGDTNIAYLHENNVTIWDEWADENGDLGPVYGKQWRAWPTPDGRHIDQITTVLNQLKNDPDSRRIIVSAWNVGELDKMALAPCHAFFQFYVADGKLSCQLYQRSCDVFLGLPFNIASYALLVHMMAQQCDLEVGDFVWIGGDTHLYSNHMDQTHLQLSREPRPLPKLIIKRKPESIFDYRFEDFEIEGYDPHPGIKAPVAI
In data set [9] the target is T1, Dihydrofolate reductase (Homo sapiens). In words: Inhibition of recombinant human DHFR at >26 uM.
Data set [10] addresses Thymidylate synthase (Escherichia coli) (UniProt C3SWJ7). In words: Inhibition of TS from Escherichia coli at >2.2*10-5 nM.
The target of data set [11] is T2, Thymidylate synthase. In words: Inhibition of recombinant human TS at >3.2*10-5 nM.
Target sequence in this assay (P04818 2-313 limits assumed): as the sequence (P04818 2-313 limits assumed) above
The target in data set [12] is Thymidylate synthase (Escherichia coli) (UniProt C3SWJ7). The data set is described as follows: Inhibition of TS from Escherichia coli at >3.2*10-5 nM.
Data set [13] addresses T1, Dihydrofolate reductase (Homo sapiens). The data set is described as follows: Inhibition of recombinant human DHFR at >31 uM.
Data set [14] has as its target Thymidylate synthase (Escherichia coli) (UniProt C3SWJ7). In words: Inhibition of TS from Escherichia coli at >2.6*10-5 nM.
For data set [15] the target is unchanged. The data set is described as follows: Inhibition of TS from Escherichia coli at >3.0*10-5 nM.
The test system of data set [16] is CCRF-CEM. In words: Protection against growth of CCRF-CEM cells in presence of 10 uM Deoxycytidine, relative to control. The format is functional, Homo sapiens.
The test system of data set [17] is CCRF-CEM. In words: Protection against growth of CCRF-CEM cells in presence of 5 uM Thymidine, 10 uM Deoxycytidine and 10 uM Hypoxanthine, relative to control. In kind it is functional, Homo sapiens.
For data set [18], the system named is CCRF-CEM. The data set is described as follows: Protection against growth of CCRF-CEM cells in presence of 5 uM Thymidine and 10 uM Deoxycytidine, relative to control. The format is functional, Homo sapiens.
Data set [19] has as its system CCRF-CEM. In words: Protection against growth inhibition of CCRF-CEM cells in presence of 10 uM of Leucovorin at concentrations that inhibited the growth by 95%. The format is functional, Homo sapiens. The arrangement: scale not given: the % may be the effect or the level left.
The next data set addresses T3, Dihydrofolate reductase (Homo sapiens, UniProt P00374).
T3 sequence (P00374 whole entry): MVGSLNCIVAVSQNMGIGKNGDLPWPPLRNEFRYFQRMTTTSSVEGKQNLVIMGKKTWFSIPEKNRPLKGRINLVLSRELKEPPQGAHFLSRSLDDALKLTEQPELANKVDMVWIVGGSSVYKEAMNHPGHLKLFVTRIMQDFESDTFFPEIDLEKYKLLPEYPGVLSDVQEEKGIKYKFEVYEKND

The test system of data set [20] is CCRF-CEM. The data set is described as follows: Protection against growth of CCRF-CEM cells in presence of 10 uM Hypoxanthine, relative to control. In kind it is functional, Homo sapiens.
The next data set concerns R1-CCRF-CEM. In words: Inhibition of growth in MTX-resistant CCRF-CEM cell line, R1 cells. In kind it is functional, cell-based. The following applies: Homo sapiens.
Data set [21] relates to CCRF-CEM. In words: Protection against growth of CCRF-CEM cells in presence of 10 uM Hypoxanthine and 10 uM Deoxycytidine, relative to control. In kind it is functional, Homo sapiens.
For data set [22], the system named is CCRF-CEM. The data set is described as follows: Protection against growth of CCRF-CEM cells in presence of 5 uM Thymidine, relative to control. The format is functional, Homo sapiens.
Data set [23] concerns CCRF-CEM. In words: Protection against growth inhibition of CCRF-CEM cells in presence of 0.1 uM of Leucovorin at concentrations that inhibited the growth by […]%. The arrangement: scale not given: the % may be the effect or the level left. The format is functional, Homo sapiens.
For the next data set, the system named is R2-CCRF-CEM. In words: Inhibition of growth in MTX-resistant CCRF-CEM cell line, R2 cells. The format is functional, cell-based. The following applies: Homo sapiens.
The target in data set [24] is Thymidylate synthase (Escherichia coli) (UniProt C3SWJ7). In words: Inhibition of TS from Escherichia coli at >2.3*10-5 nM.
The target is the same in data set [25]. The data set is described as follows: Inhibition of TS from Escherichia coli at >2.0*10-5 nM.
In data set [26] the target is T2, Thymidylate synthase. In words: Inhibition of recombinant human TS at >2.2*10-5 nM.
Target sequence in this assay (P04818 2-313 limits assumed): as the sequence (P04818 2-313 limits assumed) above
In data set [27] the target is T1, Dihydrofolate reductase (Homo sapiens). The data set is described as follows: Inhibition of recombinant human DHFR at >32 uM.
The target of data set [28] is Thymidylate synthase (Escherichia coli) (UniProt C3SWJ7). The data set is described as follows: Inhibition of TS from Escherichia coli at >2.7*10-5 nM.
Substrate in data set [29]: CCc1[nH]c2nc(N)nc(O)c2c1Sc1ccc(C(=O)N[C@@H](CCC(=O)O)C(=O)O)cc1
The data set is described as follows: Binding with human cytosolic FPGS at <= 100 uM.

Chain of Thymidylate synthase (Escherichia coli, UniProt C3SWJ7) (C3SWJ7 whole entry): as the sequence (C3SWJ7 1-264) above

What is called IC50 is the concentration at which inhibition is half-maximal. The term EC50 denotes the concentration giving half of the maximal effect. In data set [1], `Cc1[nH]c2nc(N)[nH]c(=O)c2c1Sc1ccc(C(=O)N[C@@H](CCC(=O)O)C(=O)O)cc1` gave an IC50 of 21000 nM. Moreover, the half-maximal effective concentration (EC50) in the data set with CCRF-CEM [2] amounted to 810 nM; with CCRF-CEM [3], 450 nM.

The term inhibition denotes the relative decrease from the control value, in per cent. `CCc1[nH]c2nc(N)nc(O)c2c1Sc1ccc([N+](=O)[O-])cc1`: the IC50 turned out to be 24000 nM at Thymidylate synthase [4] and 240 nM against Thymidylate synthase [6]. The inhibition in data set [5] is 33%.

For `CCc1[nH]c2nc(N)nc(O)c2c1Sc1ccc(Cl)cc1`, the inhibition worked out at 25% on Thymidylate synthase [7] and 27% in data set [8].

At Thymidylate synthase [6], `CCc1[nH]c2nc(N)[nH]c(=O)c2c1Sc1c(C)cccc1C` had an IC50 of 26000 nM.

In the case of `CCc1[nH]c2nc(N)nc(O)c2c1Sc1ccc(Br)cc1`, the inhibition turned out to be 14% in data set [9] and 15% in [10]. At Thymidylate synthase [6], this molecule showed an IC50 of 1000 nM.

With `CCc1[nH]c2nc(N)nc(O)c2c1Sc1cccc(OC)c1`, the inhibition is 15% at Thymidylate synthase [11] and 5% in [12].

In data set [12], `CCc1[nH]c2nc(N)nc(O)c2c1Sc1ccc(OC)cc1` had an inhibition of 22%. The molecule further showed an IC50 on Thymidylate synthase [6] of 16000 nM.

In the case of `CCc1[nH]c2nc(N)nc(O)c2c1Sc1cccc(Cl)c1`, the inhibition came out at 0% in [13] and 13% in data set [14]. The molecule further showed an IC50 at Thymidylate synthase [6] of 2600 nM.

For `CCc1[nH]c2nc(N)nc(O)c2c1Sc1cccc2ccccc12`, the inhibition in data set [15] is 15%.

Consider `CCc1[nH]c2nc(N)nc(O)c2c1Sc1ccc(C(=O)N[C@@H](CCC(=O)O)C(=O)O)cc1`, for which the IC50 in data set [1] is above 21000 nM; on Thymidylate synthase [4], 540 nM; against Dihydrofolate reductase, 420 nM; at Thymidylate synthase [6], 90 nM. Further, the EC50 in the data set with CCRF-CEM [2] came out at 2900 nM; in the data set with CCRF-CEM [3] it was 2700 nM; in the data set with R1-CCRF-CEM, 7050 nM; in the data set with R2-CCRF-CEM it was 12500 nM. Further, the Activity is 18% with CCRF-CEM [16]; 105% in the data set with CCRF-CEM [17]; 106% in the data set with CCRF-CEM [18]; 75% in the data set with CCRF-CEM [19]; 16% in the data set with CCRF-CEM [20]; 16% with CCRF-CEM [21]. In addition, the Activity is 106% with CCRF-CEM [22] and 95% with CCRF-CEM [23].

`CCc1[nH]c2nc(N)[nH]c(=O)c2c1Sc1cccc2ccccc12` gave an IC50 against Thymidylate synthase [6] of 5600 nM.

`CCc1[nH]c2nc(N)nc(O)c2c1Sc1ccc(Cl)c(Cl)c1` gave an inhibition in data set [24] of 41%.

As for `CCc1[nH]c2nc(N)nc(O)c2c1Sc1cc(C(F)(F)F)cc(C(F)(F)F)c1`, the inhibition was 0% in data set [25] and 18% on Thymidylate synthase [26].

For the molecule `CN(Cc1cnc2nc(N)nc(N)c2n1)c1ccc(C(=O)N[C@@H](CCC(=O)O)C(=O)O)cc1` [METHOTREXATE], the Activity came to 10% with CCRF-CEM [16]; 99% with CCRF-CEM [17]; 10% with CCRF-CEM [18]; 101% with CCRF-CEM [20]; 11% in the data set with CCRF-CEM [21]; 44% with CCRF-CEM [22]. In addition, the Activity in the data set with CCRF-CEM [23] was 10%. Also, the EC50 worked out at 565 nM in the data set with R1-CCRF-CEM and 1700 nM in the data set with R2-CCRF-CEM.

Consider `CCc1[nH]c2nc(N)nc(O)c2c1Sc1ccc(F)cc1`, for which the inhibition in [27] and in [28] was 0% throughout. The molecule also returned an IC50 at Thymidylate synthase [6] of 2700 nM.

The molecule `CCc1[nH]c2nc(N)nc(O)c2c1Sc1cccc(Br)c1` showed an inhibition in data set [24] of 10%. At Thymidylate synthase [6], this molecule came in with an IC50 of 1100 nM.

As to `CCc1[nH]c2nc(N)nc(O)c2c1Sc1c(C)cccc1C`, the inhibition in [13] and in data set [14] was 0% in each case.

On to `CCc1[nH]c2nc(N)nc(O)c2c1Sc1ccc2ccccc2c1`, for which the IC50 on Thymidylate synthase [6] was found to be 5600 nM.

The molecule `CCc1[nH]c2nc(N)[nH]c(=O)c2c1Sc1ccc(Cl)c(Cl)c1` returned an IC50 against Thymidylate synthase [6] of 230 nM.

B1: Folylpolyglutamate synthase, mitochondrial (Homo sapiens), Q05932 (protein)
chain: MSRARSHLRAALFLAAASARGITTQVAARRGLSAWPVPQEPSMEYQDAVRMLNTLQTNAGYLEQVKRQRGDPQTQLEAMELYLARSGLQVEDLDRLNIIHVTGTKGKGSTCAFTECILRSYGLKTGFFSSPHLVQVRERIRINGQPISPELFTKYFWRLYHRLEETKDGSCVSMPPYFRFLTLMAFHVFLQEKVDLAVVEVGIGGAYDCTNIIRKPVVCGVSSLGIDHTSLLGDTVEKIAWQKGGIFKQGVPAFTVLQPEGPLAVLRDRAQQISCPLYLCPMLEALEEGGPPLTLGLEGEHQRSNAALALQLAHCWLQRQDRHGAGEPKASRPGLLWQLPLAPVFQPTSHMRLGLRNTEWPGRTQVLRRGPLTWYLDGAHTASSAQACVRWFRQALQGRERPSGGPEVRVLLFNATGDRDPAALLKLLQPCQFDYAVFCPNLTEVSSTGNADQQNFTVTLDQVLLRCLEHQQHWNHLDEEQASPDLWSAPSPEPGGSASLLLAPHPPHTCSASSLVFSCISHALQWISQGRDPIFQPPSPPKGLLTHPVAHSGASILREAAAIHVLVTGSLHLVGGVLKLLEPALSQ
In the case of B1, the Km entry in data set [29] was “Not Active”.
